{"source": "patent US20250032630A1", "about": "“B7H4 ANTIBODY-DRUG CONJUGATE AND USE THEREOF” (Duality Biologics (Suzhou) Co., Ltd., priority 2022, published 2025)", "key": {"[1]": {"tested_on": "Colo205 cells", "test": "In vitro proliferation inhibition test of small molecule compound (CTG, 6 days), Example 3.2", "assay_type": "cell-based", "settings": "Homo sapiens, COLO 205, 144 h, read-out: Abs-IC50", "protocol": "(§1) To detect the inhibitory activity of the drug compound against the proliferation of NCI-N87 and Colo205 tumor cells in vitro. Cells were treated with different concentrations of the compound in vitro, after 6 days of culture, the proliferation of the cells was detected using CTG (CellTiter-Glo® Luminescent Cell Viability Assay, Promega, Cat. No.: G7558) reagent, and the in vitro activity of the compound was evaluated according to the IC50 values. • 1. Cell culture: NCI-N87/Colo205 cells were cultured with 10% FBS RPMI-1640 medium. • 2. Preparation of cells: the NCI-N87/Colo205 cells in the logarithmic growth phase were taken and washed once with PBS, and 2-3 ml of trypsin was then added for digestion for 2-3 min. After the cells were completely digested, 10-15 ml of cell culture medium was added to elute the digested cells, the cells were centrifuged at 1000 rpm for 5 min, the supernatant was discarded, and then 10-20 ml of cell culture medium was added to resuspend the cells to prepare a single cell suspension. • 3. Cell plating: the NCI-N87/Colo205 single cell suspensions were mixed uniformly, and respectively adjusted to a live cell density of 6×10^4 cells/ml with a cell culture medium, and the density-adjusted cell suspensions were mixed uniformly, and added to 96-well cell culture plates at 50 ul/well. The culture plates were cultured in an incubator for 18 hours (37° C., 5% CO2). • 4. Preparation of compound: the compound was dissolved in DMSO to formulate a stock solution with an initial concentration of 10 mM.\n(§2) A total of 8 concentrations of the small molecule compound were involved: 300, 100, 30, 10, 3, 1, 0.3, and 0.1 nM, respectively. • 5. Sample loading operation: different concentrations of the formulated samples to be tested were added to culture plates, with two replicate wells for each sample. The culture plates were incubated in an incubator for 6 days (37° C., 5% CO2). • 6. Color development operation: the 96-well cell culture plates were taken out, 50 ul of CTG reagent was added to each well, and the plates were incubated for 10 minutes at room temperature. • 7. Plate reading operation: the 96-well cell culture plates were taken out, and placed in a microplate reader, and the chemiluminescence was determined using the microplate reader.\n(§3) Data analysis: the data was processed and analyzed using Microsoft Excel and Graphpad Prism 5."}, "[2]": {"tested_on": "NCI-N87 cells", "test": "In vitro proliferation inhibition test of small molecule compound (CTG, 6 days), Example 3.2", "assay_type": "cell-based", "settings": "Homo sapiens, read-out: Abs-IC50", "protocol": "as §1, §2, §3"}, "[3]": {"tested_on": "breast cancer cells JIMT-1 negative for B7H4 expression", "test": "In vitro proliferation inhibition (3D cell culture, CTG)", "assay_type": "cell-based", "settings": "Homo sapiens, 144 h, JIMT-1, 3D culture, 6 days", "protocol": "(§4) The cells in the logarithmic growth phase were collected and a cell culture medium was added to resuspend the cells to prepare a single cell suspension. The single cell suspension was adjusted to a live cell density of […], and 3.5 mL of the cell suspension was mixed uniformly with 6.5 mL of 1% methylcellulose, avoiding bubbles as much as possible. 90 μL of the cell suspension was added to each well of 96-well plates, and the plates were cultured overnight in an incubator with 5% CO2 at 37° C. On the second day of the experiment, the test article was diluted with a complete medium to obtain a 10× solution, 10 μL of the test article solution (the highest final concentration of 100 nM, 9 concentrations, 3-fold dilution) was added to each well, the complete medium was used as a blank control, and 3 replicate wells were set up; and the plates were incubated in the incubator at 37° C. for another 6 days. After the incubation was completed, the cell culture plates were taken out and equilibrated to room temperature, and 100 μL of CTG detection reagent (Promega, Cat #: G7573) was added to each well. The plates were shaken and mixed uniformly, then left to stand in the dark for 10 minutes, and then placed at room temperature for 30 minutes to stabilize the luminescence signal. Luminescence was read using EnVision. Using GraphPad Prism software, a sigmoidal dose-response curve was plotted by using a non-linear regression model, and the IC50 value was calculated. Cell viability calculation"}, "[4]": {"tested_on": "endometrial carcinoma cells RL95-2 with low expression of B7H4", "test": "In vitro proliferation inhibition (3D cell culture, CTG)", "assay_type": "cell-based", "settings": "Homo sapiens, 144 h, RL95-2, 3D culture, 6 days", "protocol": "as §4"}, "[5]": {"tested_on": "human breast cancer cells MX-1 with high expression of B7H4", "test": "In vitro proliferation inhibition (3D cell culture, CTG)", "assay_type": "cell-based", "settings": "144 h, MX-1, 3D culture, 6 days", "protocol": "as §4"}, "[6]": {"target": "T1, human B7H4 (human, UniProt Q7Z7D3 25-282)", "T1 sequence (looked up)": "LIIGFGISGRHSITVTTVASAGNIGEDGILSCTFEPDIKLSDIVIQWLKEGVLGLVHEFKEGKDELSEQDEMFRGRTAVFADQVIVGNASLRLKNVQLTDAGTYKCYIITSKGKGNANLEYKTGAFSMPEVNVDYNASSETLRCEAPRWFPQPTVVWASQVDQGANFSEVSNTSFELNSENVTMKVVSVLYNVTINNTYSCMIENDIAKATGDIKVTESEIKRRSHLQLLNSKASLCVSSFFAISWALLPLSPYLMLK", "test": "cell-based or functional assay"}, "[7]": {"settings": "highest concentration 100 nM, read-out: Max inh."}}, "note": "Read-outs that look alike come from different tables or passages of the source."}
{"molecule": "CC[C@@]1(O)C(=O)OCc2c1cc1n(c2=O)Cc2c-1nc1cc(F)c(C)c3c1c2[C@@H](NC(=O)C[C@H](C)O)CC3", "note": "[P-III-30]", "values": [{"measurement": "IC50", "setting": "[1]; Colo205, 6 days, CTG", "result": 103, "unit": "nM"}, {"measurement": "IC50", "setting": "[2]; 144 h, NCI-N87, 6 days, CTG", "result": 6.5, "unit": "nM"}, {"measurement": "IC50", "setting": "[3]", "result": 24.3, "unit": "nM"}, {"measurement": "inhibition at up to 0.1 µM", "setting": "[3]; [7]", "result": 71, "unit": "%"}, {"measurement": "IC50", "setting": "[4]", "result": 0.843, "unit": "nM"}, {"measurement": "inhibition at up to 0.1 µM", "setting": "[4]; [7]", "result": 95.1, "unit": "%"}, {"measurement": "IC50", "setting": "[5]", "result": 1.77, "unit": "nM"}, {"measurement": "inhibition at up to 0.1 µM", "setting": "[5]; [7]", "result": 84.5, "unit": "%"}]}
{"molecule": "CC[C@@]1(O)C(=O)OCc2c1cc1n(c2=O)Cc2c-1nc1cc(F)c(C)c3c1c2[C@@H](NC(=O)CCN)CC3", "note": "[Reference example 1, reference compound]", "values": [{"measurement": "IC50", "setting": "[1]", "result": "> 1000", "unit": "nM"}, {"measurement": "IC50", "setting": "[2]; NCI-N87, 144 h", "result": "> 300", "unit": "nM"}]}
{"molecule": "antibody-drug conjugate DB1001-X1 (antibody, DAR 3.89, V domains shown, linker-cytotoxin X1 (payload P-II-3) coupled after TCEP reduction of the antibody; drug-to-antibody ratio (DAR) of 3.89; conjugation residues not stated) VH: QVQLVESGGGVVQPGRSLRLSCAASGFTFRSFGMHWVRQAPGKGLEWVAVISYDASNEYYADSVKGRFIISRDNSKDTLYLQMNSLRAGDTAVYYCAKGGALRWYFAYWGQGTLVTVSS VL: EIVMTQSPATLSVSPGERATLSCRASQSISSNLGWYQQKPGQAPRLLIYGASTRATGIPARFSGSGSGTEFTLTISSLQSEDFAVYYCQQYRSWPPLTFGGGTKVEIKR", "values": [{"measurement": "IC50 (nM), in vitro proliferation inhibition of MDA-MB-468 cells (CTG, 7 days)", "setting": "[6]", "result": 30.3, "unit": "nM"}]}
